Molecular target: T1, hTLR7 (Homo sapiens, UniProt Q9NYK1)
T1 sequence (Q9NYK1 27-1049): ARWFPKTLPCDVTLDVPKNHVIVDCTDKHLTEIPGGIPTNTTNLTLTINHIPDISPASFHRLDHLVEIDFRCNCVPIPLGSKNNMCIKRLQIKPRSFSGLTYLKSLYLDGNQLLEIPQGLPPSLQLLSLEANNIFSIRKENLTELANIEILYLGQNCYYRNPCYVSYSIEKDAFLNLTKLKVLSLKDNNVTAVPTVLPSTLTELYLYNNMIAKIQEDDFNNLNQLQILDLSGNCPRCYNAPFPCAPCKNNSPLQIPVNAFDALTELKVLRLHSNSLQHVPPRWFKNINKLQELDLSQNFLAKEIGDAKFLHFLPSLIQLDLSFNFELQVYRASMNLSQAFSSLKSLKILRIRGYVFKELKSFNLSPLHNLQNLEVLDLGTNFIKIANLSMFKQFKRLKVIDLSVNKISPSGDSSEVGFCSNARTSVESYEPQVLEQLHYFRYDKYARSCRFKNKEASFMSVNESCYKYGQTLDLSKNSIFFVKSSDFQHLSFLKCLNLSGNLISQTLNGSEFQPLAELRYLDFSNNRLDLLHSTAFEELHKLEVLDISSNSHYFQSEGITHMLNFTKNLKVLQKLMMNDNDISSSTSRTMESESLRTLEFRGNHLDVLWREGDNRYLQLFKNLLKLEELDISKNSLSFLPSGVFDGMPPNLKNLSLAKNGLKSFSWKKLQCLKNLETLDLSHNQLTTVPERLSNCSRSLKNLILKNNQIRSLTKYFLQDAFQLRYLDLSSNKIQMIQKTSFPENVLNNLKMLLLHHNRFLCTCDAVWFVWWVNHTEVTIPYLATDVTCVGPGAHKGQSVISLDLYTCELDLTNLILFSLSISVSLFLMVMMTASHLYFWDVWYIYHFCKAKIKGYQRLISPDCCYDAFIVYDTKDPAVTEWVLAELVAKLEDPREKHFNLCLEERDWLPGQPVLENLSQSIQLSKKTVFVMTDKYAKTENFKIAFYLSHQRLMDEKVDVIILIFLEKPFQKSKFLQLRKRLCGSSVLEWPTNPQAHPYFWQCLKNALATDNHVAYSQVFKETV
Assay: HEK293-Blue-hTLR-7 cells assay (SEAP reporter, R848 stimulation)
Format: cell-based
Details: HEK293-Blue-hTLR7 cells, R848, 20 hrs; 0.003 is the lowest tested concentration; read-out: HEK/hTLR7 IC50
Protocol: The following tests were carried out in order to determine the activity of the compounds of formula (I) or (Ia) in HEK293-Blue-hTLR-7/8/9 cells assay.
HEK293-Blue-hTLR-7 cells assay:
A stable HEK293-Blue-hTLR-7 cell line was purchased from InvivoGen (Cat.#: hkb-htlr7, San Diego, California, USA). These cells were originally designed for studying the stimulation of human TLR7 by monitoring the activation of NF-κB. A SEAP (secreted embryonic alkaline phosphatase) reporter gene was placed under the control of the IFN-β minimal promoter fused to five NF-κB and AP-1-binding sites. The SEAP was induced by activating NF-κB and AP-1 via stimulating HEK-Blue hTLR7 cells with TLR7 ligands. Therefore the reporter expression was declined by TLR7 antagonist under the stimulation of a ligand, such as R848 (Resiquimod), for incubation of 20 hrs. The cell culture supernatant SEAP reporter activity was determined using QUANTI-Blue™ kit (Cat.#: rep-qb1, Invivogen, San Diego, Ca, USA) at a wavelength of 640 nm, a detection medium that turns purple or blue in the presence of alkaline phosphatase.
HEK293-Blue-hTLR7 cells were incubated at a density of 250,000∼450,000 cells/mL in a volume of 170 µL in a 96-well plate in Dulbecco's Modified Eagle's medium (DMEM) containing 4.5 g/L glucose, 50 U/mL penicillin, […], […], 2 mM L-glutamine, 10% (v/v) heat-inactivated fetal bovine serum with addition of 20 µL test compound in a serial dilution in the presence of final DMSO at 1% and 10 µL of 20uM R848 in above DMEM, perform incubation under 37 °C in a CO2 incubator for 20 hrs. Then 20 µL of the supernatant from each well was incubated with 180 µL Quanti-blue substrate solution at 37 °C for 2 hrs and the absorbance was read at 620∼655 nm using a spectrophotometer. The signalling pathway that TLR7 activation leads to downstream NF-κB activation has been widely accepted, and therefore similar reporter assay was modified for evaluating TLR7 antagonist.

Row | IC50 | Compound
1 | 15 nM | C[C@@H]1CN(c2ccc(C#N)c3ncccc23)C[C@H](CN2CCc3nc(N4CCNCC4)ccc3C2)O1 [Example 79, 5-[(2R,6S)-2-methyl-6-[(2-piperazin-1-yl-7,8-dihydro-5H-1,6-naphthyridin-6-yl)methyl]morpholin-4-yl]quinoline-8-carbonitrile]
2 | 56 nM | COC(=O)C1CN(c2ccc3c(c2)CN(C[C@H]2CN(c4ccc(C#N)c5ncccc45)C[C@@H](C)O2)C3)CCN1 (stereo partly drawn) [Example 67, Methyl 4-[2-[[(2S,6R)-4-(8-cyano-5-quinolyl)-6-methyl-morpholin-2-yl]methyl]isoindolin-5-yl] piperazine-2-carboxylate]
3 | 108 nM | C[C@@H]1CN(c2ccc3c(c2)CN(C[C@H]2CN(c4ccc(C#N)c5ncccc45)C[C@@H](C)O2)C3)C[C@H](C)N1 [Example 71, 5-[(2R,6S)-2-methyl-6-[[5-[(3R,5S)-3,5-dimethylpiperazin-1-yl]isoindolin-2-yl]methyl]morpholin-4-yl]quinoline-8-carbonitrile]
4 | 84 nM | C[C@@H]1CN(c2ccc(C#N)c3ncccc23)C[C@H](CN2Cc3ccc(N4CC5(CNC5)C4)cc3C2)O1 [Example 47, 5-[(2S,6R)-2-[[5-(2,6-diazaspiro[3.3]heptan-2-yl)isoindolin-2-yl]methyl]-6-methyl-morpholin-4-yl]quinoline-8-carbonitrile]
5 | 125 nM | C[C@@H]1CN(c2ccc3c(c2)CN(C[C@H]2CN(c4ccc(C#N)c5ncccc45)C[C@@H](C)O2)C3)C[C@@H](C)N1 (mixture of isomers) [Example 57, Trans-5-[(2R,6S)-2-methyl-6-[[5-[3,5-dimethylpiperazin-1-yl]isoindolin-2-yl]methyl]morpholin-4-yl]quinoline-8-carbonitrile]
6 | 42 nM | C[C@@H]1CN(c2ccc(C#N)c3ncccc23)C[C@H](CN2Cc3ccc(N4CCNCC4)cc3C(O)C2)O1 (stereo partly drawn) [Example 75, 5-[(2S,6R)-2-[(4-hydroxy-6-piperazin-1-yl-3,4-dihydro-1H-isoquinolin-2-yl)methyl]-6-methyl-morpholin-4-yl]quinoline-8-carbonitrile]
7 | 56 nM | C[C@@H]1CN(c2ccc(C#N)n3nccc23)C[C@H](CN2Cc3ccc(N4CCNCC4)cc3C2)O1 [Example 4, 4-[(2R,6S)-2-methyl-6-[(5-piperazin-1-ylisoindolin-2-yl)methyl]morpholin-4-yl]pyrazolo[1,5-a]pyridine-7-carbonitrile]
8 | 9 nM | C[C@@H]1CN(c2ccc(C#N)c3ncsc23)C[C@H](CN2CCc3cc(N4CCNCC4)ccc3C2)O1 [Example 24, 7-[(2R,6S)-2-methyl-6-[(6-piperazin-1-yl-3,4-dihydro-1H-isoquinolin-2-yl)methyl]morpholin-4-yl]-1,3-benzothiazole-4-carbonitrile]
9 | 9 nM | C[C@@H]1CN(c2ccc(Cl)c3nccnc23)C[C@H](CN2Cc3ccc(N4CCNCC4)cc3C2)O1 [Example 33, (2R,6S)-4-(8-chloroquinoxalin-5-yl)-2-methyl-6-[(5-piperazin-1-ylisoindolin-2-yl)methyl]morpholine]
10 | 48 nM | C[C@@H]1CN(c2ccc(C#N)c3ncccc23)C[C@H](CN2Cc3ccc(N4CCNCC4CO)cc3C2)O1 (stereo partly drawn) [Example 73, 5-[(2S,6R)-2-[[5-[2-(hydroxymethyl)piperazin-1-yl]isoindolin-2-yl]methyl]-6-methyl-morpholin-4-yl]quinoline-8-carbonitrile]

Second part, the compound before the results:

Row | Compound | IC50
11 | C[C@@H]1CN(c2ccc(C#N)n3nccc23)C[C@H](CN2Cc3cc(N4CCNCC4)cnc3C2)O1 [Example 18, 4-[(2R,6S)-2-methyl-6-[(3-piperazin-1-yl-5,7-dihydropyrrolo[3,4-b]pyridin-6-yl)methyl]morpholin-4-yl]pyrazolo[1,5-a]pyridine-7-carbonitrile] | 68 nM
12 | C[C@@H]1CN(c2ccc(C#N)c3ncccc23)C[C@H](CN2Cc3ccc(N4CC5COCC(C4)N5)cc3C2)O1 [Example 72, 5-[(2R,6S)-2-methyl-6-[[5-(3-oxa-7,9-diazabicyclo[3.3.1]nonan-7-yl)isoindolin-2-yl]methyl]morpholin-4-yl]quinoline-8-carbonitrile] | 45 nM
13 | C[C@@H]1CN(c2ccc(C#N)n3nccc23)C[C@H](CN2CCc3cc(N4CCNCC4)ccc3C2)O1 [Example 10, 4-[(2R,6S)-2-methyl-6-[(6-piperazin-1-yl-3,4-dihydro-1H-isoquinolin-2-yl)methyl]morpholin-4-yl]pyrazolo[1,5-a]pyridine-7-carbonitrile] | 81 nM
14 | C[C@@H]1CN(c2ccc(Cl)c3nccnc23)C[C@H](CN2CCc3cc(N4CCNCC4)ccc3C2)O1 [Example 34, (2R,6S)-4-(8-chloroquinoxalin-5-yl)-2-methyl-6-[(6-piperazin-1-yl-3,4-dihydro-1H-isoquinolin-2-yl)methyl]morpholine] | 23 nM
15 | C[C@@H]1CN(c2ccc(C#N)n3nccc23)C[C@H](CN2Cc3ccc(N4CCN(C)CC4)cc3C2)O1 [Example 17, 4-[(2R,6S)-2-methyl-6-[[5-(4-methylpiperazin-1-yl)isoindolin-2-yl]methyl]morpholin-4-yl]pyrazolo[1,5-a]pyridine-7-carbonitrile] | 65 nM
16 | C[C@@H]1CN(c2ccc(C#N)n3nccc23)C[C@H](CN2Cc3ccc(C4CCNCC4)cc3C2)O1 [Example 8, 4-[(2R,6S)-2-methyl-6-[[5-(4-piperidyl)isoindolin-2-yl]methyl]morpholin-4-yl]pyrazolo[1,5-a]pyridine-7-carbonitrile] | 206 nM
17 | 3-fluoro-4-[(2R,6S)-2-methyl-6-[(5-piperazin-1-ylisoindolin-2-yl)methyl]morpholin-4-yl]pyrazolo[1,5-a]pyridine-7-carbonitrile [Example 7] | 42 nM
18 | C[C@@H]1CN(c2ccc(C#N)n3ncc(F)c23)C[C@H](CN2CCc3cc(N4CCNCC4)ccc3C2)O1 [Example 14, 3-fluoro-4-[(2R,6S)-2-methyl-6-[(6-piperazin-1-yl-3,4-dihydro-1H-isoquinolin-2-yl)methyl]morpholin-4-yl]pyrazolo[1,5-a]pyridine-7-carbonitrile] | 21 nM
19 | C[C@@H]1CN(c2ccc(C#N)n3ncc(F)c23)C[C@H](CN2Cc3cc(N4CCNCC4)cnc3C2)O1 [Example 29, 3-fluoro-4-[(2R,6S)-2-methyl-6-[(3-piperazin-1-yl-5,7-dihydropyrrolo[3,4-b]pyridin-6-yl)methyl]morpholin-4-yl]pyrazolo[1,5-a]pyridine-7-carbonitrile] | 49 nM
20 | C[C@@H]1CN(c2ccc(C#N)c3ncccc23)C[C@H](CN2Cc3ccc(N4C5CCC4CNC5)cc3C2)O1 [Example 43, 5-[(2S,6R)-2-[[5-(3,8-diazabicyclo[3.2.1]octan-8-yl)isoindolin-2-yl]methyl]-6-methyl-morpholin-4-yl]quinoline-8-carbonitrile] | 60 nM
21 | C[C@@H]1CN(c2ccc(C#N)n3nccc23)C[C@H](CN2Cc3ccc(OCCN(C)C)cc3C2)O1 [Example 28, 4-[(2S,6R)-2-[[5-[2-(dimethylamino)ethoxy]isoindolin-2-yl]methyl]-6-methyl-morpholin-4-yl]pyrazolo[1,5-a]pyridine-7-carbonitrile] | 227 nM

Source: EP3623369A1, “NOVEL MORPHOLINYL AMINE COMPOUNDS FOR THE TREATMENT OF AUTOIMMUNE DISEASE” (F. Hoffmann-La Roche AG, priority 2018, dated 2020)
